Source: patent US20210315880A1, “METHODS OF TREATING VIRAL INFECTIONS USING INHIBITORS OF NUCLEOTIDE SYNTHESIS PATHWAYS” (priority 2020, published 2021)
Like-named read-outs stand apart in the source and are kept apart here.

Experiments:
solid malignancies = conditions: cited from earlier work; for recommended dose for phase II studies: 1-h i.v. infusion every 3 weeks; for maximum tolerable dose: i.v. infusion every 3 weeks
SARS-CoV-2 = format: cell-based
Vero E6 cells = conditions: remdesivir co-treated with brequinar
[1] = Adverse events in subjects receiving brequinar intravenously once a week; conditions: Infection
[2] = in vivo
[3] = system: acute myeloid leukemia (AML); test: Effect of brequinar-containing composition on patient with AML; format: in vivo, human
DHODH = DHODH (Homo sapiens, UniProt Q02127)
Chain of DHODH (Q02127 whole entry): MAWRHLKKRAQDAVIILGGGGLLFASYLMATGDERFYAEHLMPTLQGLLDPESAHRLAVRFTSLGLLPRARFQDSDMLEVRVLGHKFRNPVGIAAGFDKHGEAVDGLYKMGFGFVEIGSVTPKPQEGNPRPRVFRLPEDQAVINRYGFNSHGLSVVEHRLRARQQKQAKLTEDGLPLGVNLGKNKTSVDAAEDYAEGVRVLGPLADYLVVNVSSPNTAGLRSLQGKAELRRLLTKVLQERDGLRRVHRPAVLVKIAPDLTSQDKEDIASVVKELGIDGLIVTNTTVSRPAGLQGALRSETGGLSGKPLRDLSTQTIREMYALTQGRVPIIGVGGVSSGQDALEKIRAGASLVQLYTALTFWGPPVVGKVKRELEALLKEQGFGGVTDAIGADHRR

RNA virus = test: Daily brequinar x 5 days in a subject infected with an RNA virus; format: in vivo; conditions: at first peak in brequinar level, once per day for five days
Procedure: The mechanism by which administration of a DHODH inhibitor according to a daily dosing regimen inhibits viral replication is illustrated below. […] Throughout the course of the dosing regimen, levels of intracellular pyrimidines, such as uridine, and viral replication are measured.

[4] = in vivo; remark: listed apart in the source
advanced lung cancer = conditions: weekly rapid iv injection, previously treated patients with advanced lung cancer; cited from earlier work

SMILES: Cc1c(-c2ccc(-c3ccccc3F)cc2)nc2ccc(F)cc2c1C(=O)O [Brequinar sodium]
- recommended dose for phase II studies (solid malignancies; good-risk patients): 1,800 mg/m^2
- maximum tolerable dose (solid malignancies; good-risk patients): 2,250 mg/m^2
- tumor response (solid malignancies; patient with papillary carcinoma of the thyroid): One mixed response
- recommended dose for phase II studies (solid malignancies; poor-risk patients): 1,200 mg/m^2
- maximum tolerable dose (solid malignancies; poor-risk patients): 1,500 mg/m^2

SMILES: CCC(CC)COC(=O)[C@H](C)N[P@](=O)(OC[C@H]1O[C@@](C#N)(c2ccc3c(N)ncnn23)[C@H](O)[C@@H]1O)Oc1ccccc1 [remdesivir]
- Min Data (SARS-CoV-2; brequinar 0.000 μM): −11%
- Min Data (SARS-CoV-2; brequinar 0.078 μM): −1.9%
- cytotoxicity of co-treatment (Vero E6 cells): No enhanced cytotoxicity

SMILES: Cc1c(-c2ccc(-c3ccccc3F)cc2)nc2ccc(F)cc2c1C(=O)O [brequinar, 6-fluoro-2-(2′-fluoro-1,1′ biphenyl-4-yl)-3-methyl-4-quinoline carboxylic acid]
- No. of Patients [1]: 7
- No. of Patients Experiencing the AE, 5 y Max Grade 1 [1]: 4
- No. of Patients Experiencing the AE, 5 y Max Grade 2 [1]: 3
- No. of Patients Experiencing the AE, 5 y Max Grade 3 [1]: 0
- No. of Patients Experiencing the AE, 5 y Max Grade 4 [1]: 0
- Percent [1]: 3.3%
- effect of repeated doses [2]: No cumulative effective of repeated doses
- response ([3]; first patient with AML (Example 12)): positive response as indicated by reduction in bone marrow blast count, improvement of extramedullary hematopoiesis, and shift to more differentiation in peripheral blasts
- response ([3]; patient with AML of Example 14): positive response as indicated by a trend towards differentiation of their peripheral blasts
- response ([3]; second patient with AML (Example 13)): positive response to the disease with a lowering of peripheral blasts and increase in absolute neutrophil count, along with greater differentiation of peripheral blasts
- concentrations at which DHODH is almost completely inhibited (DHODH): > 1 µM
- intracellular pyrimidine pool (RNA virus): dramatic decrease in the intracellular pyrimidine pool
- viral replication (RNA virus): dramatic reduction in viral replication
- oral versus IV formulations [4]: oral and IV formulations are equivalent

SMILES: NC(=O)c1[nH]nc([C@@H]2O[C@H](CO)[C@@H](O)[C@H]2O)c1O [PYR, 5-[(2S,3R,4S,5R)-3,4-dihydroxy-5-(hydroxymethyl)oxolan-2-yl]-4-hydroxy-1H-pyrazole-3-carboxamide]
- therapeutic value (advanced lung cancer): has little therapeutic value as a single agent
